Some test systems named below: OVCAR-5 ovarian; HT29 colon; 786-0 renal; SK-MEL-2 melanoma; ACHN renal; LOX IMVI melanoma; UACC-257 melanoma; EKVX NSCLC.
Holding throughout (assay): NCI tumour cell line growth inhibition, 48 h

“And” between values parts separate entries of the source, which are not always exact repeats. Identical values can stand only once.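 Where inhibition never reached the appropriate level, the endpoint shown equals the highest concentration tested. Otherwise, values were interpolated linearly from a five-concentration, 48-hour dose response in 96-well plates. GI50 marks 50% less growth. TGI: concentration producing complete growth inhibition.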

The results in this text go back to PubChem BioAssay (NCI).

With `Nc1cc2c(cc1Br)[nH]c(=O)c1ccccc12`, the GI50 in the assay with OVCAR-5 ovarian is 6.91 µM; in the assay with HT29 colon, 3.46 µM; in the assay with 786-0 renal, 6.16 µM; in the assay on SK-MEL-2 melanoma, 3.44 µM; with ACHN renal it was 3.09 µM; in the assay on LOX IMVI melanoma, 1.8 µM. Also, the values for the GI50 in the assay with UACC-257 melanoma and in the assay with EKVX NSCLC were 4.13 µM and 4.18 µM, respectively. Besides, the TGI was 41.1 µM in the assay with OVCAR-5 ovarian; 10.8 µM in the assay with HT29 colon; greater than 100 µM in the assay with 786-0 renal; 11.2 µM in the assay with SK-MEL-2 melanoma; 20.1 µM in the assay with ACHN renal; 6.23 µM with LOX IMVI melanoma. The TGI was 17.1 µM in the assay with UACC-257 melanoma and 35.1 µM with EKVX NSCLC.
For `CCC/C=C/C=C/C1CC(O)C(O)C(=O)C1CO` (stereo not drawn), the TGI in the assay on OVCAR-5 ovarian, in the assay on HT29 colon, in the assay with 786-0 renal, with SK-MEL-2 melanoma, with ACHN renal and with LOX IMVI melanoma was greater than 100 µM throughout. The TGI with UACC-257 melanoma and with EKVX NSCLC was greater than 100 µM throughout.
On to `COc1ccc(C(=O)c2cc(OC)c(OC)c(OC)c2)cc1OC`, for which the TGI was greater than 100 µM with OVCAR-5 ovarian; 9.75 µM in the assay on HT29 colon; greater than 100 µM with 786-0 renal; greater than 100 µM with SK-MEL-2 melanoma; greater than 100 µM in the assay on ACHN renal; greater than 100 µM with LOX IMVI melanoma. The TGI with UACC-257 melanoma and with EKVX NSCLC was greater than 100 µM throughout.
Consider `Cc1ccccc1C1=[N+]([O-])c2ccc(Cl)cc2C1=O`, for which the TGI in the assay on OVCAR-5 ovarian turned out to be 37.8 µM; in the assay on HT29 colon it was 20.3 µM; with 786-0 renal it was 32.9 µM; in the assay on SK-MEL-2 melanoma, 46 µM; with ACHN renal it was 25.5 µM; in the assay on LOX IMVI melanoma, 20.2 µM. The results for the TGI with UACC-257 melanoma and in the assay with EKVX NSCLC were 26.4 µM and 25 µM, respectively.
On to `COC(=O)C1=COC(C)C2CN3CCc4c([nH]c5ccccc45)C3CC12` (stereo not drawn), for which the TGI in the assay with OVCAR-5 ovarian was greater than 100 µM; in the assay with HT29 colon, 27.2 µM and > 100 µM; in the assay with 786-0 renal it was 40.2 µM and > 100 µM; in the assay on SK-MEL-2 melanoma, 92.1 µM and > 100 µM; with ACHN renal it was greater than 100 µM; in the assay with LOX IMVI melanoma, 45.5 µM and > 100 µM. The TGI in the assay on UACC-257 melanoma is greater than 100 µM; in the assay on EKVX NSCLC, 80.9 µM and > 100 µM. For the same compound, the GI50 in the assay on HT29 colon was 13.8 µM and > 100 µM; in the assay on 786-0 renal, 18.8 µM and 54.8 µM; in the assay on SK-MEL-2 melanoma, 20 µM and > 100 µM; with ACHN renal, 32.1 µM and > 100 µM; in the assay with LOX IMVI melanoma, 18.5 µM and > 100 µM; with UACC-257 melanoma it was 34.2 µM and > 100 µM. Further, in the assay with EKVX NSCLC, the GI50 was 17.8 µM and > 100 µM.
For the compound `COc1cc2c(/C=N\N=C(N)N)c[nH]c2cc1C`, the GI50 was 21.4 µM with OVCAR-5 ovarian; 18 µM in the assay on HT29 colon; 19.4 µM in the assay with 786-0 renal; 32.7 µM with SK-MEL-2 melanoma; 24.3 µM in the assay with ACHN renal; 31.8 µM with LOX IMVI melanoma. Moreover, the figures for the GI50 in the assay with UACC-257 melanoma and in the assay on EKVX NSCLC were 36.8 µM and 28.3 µM, respectively. Moreover, the TGI was 64 µM in the assay with OVCAR-5 ovarian; 37.1 µM with HT29 colon; 46.8 µM in the assay on 786-0 renal; greater than 100 µM in the assay with SK-MEL-2 melanoma; greater than 100 µM in the assay with ACHN renal; greater than 100 µM in the assay with LOX IMVI melanoma. The figures for the TGI with UACC-257 melanoma and in the assay on EKVX NSCLC were greater than 100 µM and 88.5 µM, respectively.
On to `O=C(/C=C/c1ccccc1)c1ccccc1`, for which the TGI in the assay on OVCAR-5 ovarian is greater than 10 µM; in the assay on HT29 colon, greater than 10 µM; with 786-0 renal it was greater than 10 µM; in the assay with SK-MEL-2 melanoma, greater than 10 µM; in the assay on ACHN renal, greater than 10 µM; with LOX IMVI melanoma it was 4.11 µM. In addition, the TGI in the assay on UACC-257 melanoma and in the assay on EKVX NSCLC was greater than 10 µM each time.
Take `CCCc1cc(=O)n2c(C(=O)Nc3ccc(Cl)cc3C)c(C(=O)Nc3ccc(F)cc3)sc2n1`: the GI50 with OVCAR-5 ovarian was 53.9 µM; in the assay with HT29 colon, 12.2 µM; with 786-0 renal, 2.36 µM; in the assay on SK-MEL-2 melanoma it was 4.13 µM; in the assay on ACHN renal, 3.8 µM; with LOX IMVI melanoma it was 1.6 µM. For the same compound, the GI50 with UACC-257 melanoma was 7.56 µM; in the assay with EKVX NSCLC, 21.3 µM. Besides, the TGI in the assay on OVCAR-5 ovarian is greater than 150 µM; in the assay on HT29 colon, greater than 150 µM; with 786-0 renal, 5.96 µM; in the assay with SK-MEL-2 melanoma, 21.9 µM; in the assay on ACHN renal, 13.4 µM; in the assay on LOX IMVI melanoma, 19.9 µM. The TGI with UACC-257 melanoma is 42.4 µM; in the assay with EKVX NSCLC, greater than 150 µM.
On to `CC(C)[C@H](O)C(=O)N[C@@H](C)C(=O)N[C@@H]1C(=O)N(C)CCc2ccccc21`, for which the GI50 in the assay with OVCAR-5 ovarian, in the assay with HT29 colon, with 786-0 renal, in the assay on SK-MEL-2 melanoma, in the assay on ACHN renal and in the assay on LOX IMVI melanoma was greater than 100 µM throughout. Moreover, the GI50 with UACC-257 melanoma and in the assay with EKVX NSCLC was greater than 100 µM each time. In addition, the TGI in the assay with OVCAR-5 ovarian, in the assay on HT29 colon, with 786-0 renal, with SK-MEL-2 melanoma, in the assay with ACHN renal and with LOX IMVI melanoma was greater than 100 µM each time. Further, the TGI in the assay with UACC-257 melanoma and in the assay on EKVX NSCLC was greater than 100 µM in each case.
With `CCc1ccc2c(c1)C(=O)c1c-2n(CCCN=[N+]=[N-])c(=O)c2cc([N+](=O)[O-])ccc12`, the GI50 in the assay with OVCAR-5 ovarian, in the assay with HT29 colon, in the assay on 786-0 renal, with SK-MEL-2 melanoma, in the assay with ACHN renal and in the assay on LOX IMVI melanoma was greater than 50 µM in each case. Also, the GI50 in the assay with UACC-257 melanoma and in the assay on EKVX NSCLC was greater than 50 µM each time. Besides, the TGI with OVCAR-5 ovarian, with HT29 colon, in the assay with 786-0 renal, in the assay on SK-MEL-2 melanoma, with ACHN renal and in the assay with LOX IMVI melanoma was greater than 50 µM throughout. Also, the TGI in the assay on UACC-257 melanoma and with EKVX NSCLC was greater than 50 µM in each case.
For `Nc1cc(Br)c(-c2nnc(CCC(=O)c3nc4ccccc4[nH]3)o2)c(Br)c1`, the GI50 is 29.4 µM with OVCAR-5 ovarian; 19.2 µM with HT29 colon; 21 µM in the assay with 786-0 renal; 4.3 µM with SK-MEL-2 melanoma; 48 µM in the assay on ACHN renal; 3.25 µM with LOX IMVI melanoma. Moreover, the GI50 in the assay on UACC-257 melanoma is 7.63 µM; in the assay with EKVX NSCLC, 23.1 µM. Further, the TGI with OVCAR-5 ovarian was greater than 100 µM; in the assay with HT29 colon, 83.5 µM; with 786-0 renal it was 61.7 µM; in the assay on SK-MEL-2 melanoma, greater than 100 µM; in the assay on ACHN renal, greater than 100 µM; in the assay on LOX IMVI melanoma it was 46.4 µM. Moreover, the TGI with UACC-257 melanoma and with EKVX NSCLC was greater than 100 µM each time.
